Laboratory results: patent US9765075B2, “Substituted bridged urea analogs as sirtuin modulators” (GLAXOSMITHKLINE LLC, priority 2013, dated 2017)
Like-named read-outs stand apart in the source and are kept apart here.

Target: T1, SIRT1 (Homo sapiens, UniProt Q96EB6)
T1 sequence (Q96EB6 1-747): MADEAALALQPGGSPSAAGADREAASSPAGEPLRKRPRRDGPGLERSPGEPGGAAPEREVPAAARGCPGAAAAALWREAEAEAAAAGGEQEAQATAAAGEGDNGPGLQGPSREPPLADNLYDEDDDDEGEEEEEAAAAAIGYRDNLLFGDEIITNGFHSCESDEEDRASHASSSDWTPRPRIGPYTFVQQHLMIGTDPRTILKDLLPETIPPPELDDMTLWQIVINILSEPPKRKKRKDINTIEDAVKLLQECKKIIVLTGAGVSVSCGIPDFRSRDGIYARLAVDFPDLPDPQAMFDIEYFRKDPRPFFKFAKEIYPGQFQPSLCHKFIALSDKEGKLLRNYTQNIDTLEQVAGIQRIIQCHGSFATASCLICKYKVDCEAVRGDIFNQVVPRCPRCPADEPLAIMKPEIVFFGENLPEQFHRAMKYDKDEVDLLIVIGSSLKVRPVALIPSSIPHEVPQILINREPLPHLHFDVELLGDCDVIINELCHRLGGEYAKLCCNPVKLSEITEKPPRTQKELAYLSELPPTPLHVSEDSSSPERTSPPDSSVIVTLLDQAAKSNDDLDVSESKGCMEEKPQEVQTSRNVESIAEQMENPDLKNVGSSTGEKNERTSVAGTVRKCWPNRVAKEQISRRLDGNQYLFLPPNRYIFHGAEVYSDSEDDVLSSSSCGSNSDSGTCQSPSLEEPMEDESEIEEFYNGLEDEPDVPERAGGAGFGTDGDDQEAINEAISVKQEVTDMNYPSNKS
Assay: Trp mass spectrometry assay (SIRT1 activation)
Type: biochemical
Conditions: for Emax: percent maximum fold activation of SIRT1, read-out: Tryp % Fold Act
Excerpt: Mass spectrometry based assays were used to identify modulators of SIRT1 activity. […] The peptide was labeled with the fluorophore 5TMR (excitation 540 nm/emission 580 nm) at the C-terminus. The sequence of the peptide substrate was based on p53 with several modifications. In addition, the methionine residue naturally present in the sequence was replaced with the norleucine because the methionine may be susceptible to oxidation during synthesis and purification. The Trp based assay utilized a peptide having an amino acid residues as follows: Ac-R-H-K-K(Ac)-W-NH2 (SEQ ID NO: 2).
The Trp mass spectrometry assay was conducted as follows. 0.5 μM peptide substrate and 120 μM βNAD^+ were incubated with 10 nM SIRT1 for 25 minutes at 25° C. in a reaction buffer (50 mM HEPES pH 7.5, […] NaCl, 1 mM DTT, 0.05% BSA). The SIRT1 protein was obtained by cloning the SirT1 gene into a T7-promoter containing vector, which was then expressed in BL21(DE3) bacterial cells and purified as described in further detail below. Test compound was added at varying concentrations to this reaction mixture and the resulting reactions were monitored. After the 25 minute incubation with SIRT1, 10 μL of 10% formic acid was added to stop the reaction. The resulting reactions were sealed and frozen for later mass spec analysis. The relative SIRT1 activity was then determined by measuring the amount of 0-acetyl-ADP-ribose (OAADPR) formed (or, alternatively, the amount of deacetylated Trp peptide generated) by the NAD-dependent sirtuin deacetylation reaction in the presence of varying concentrations of the test compound versus control reactions lacking the test compound. The degree to which the test agent activated deacetylation by SIRT1 was expressed as EC1.5 (i.e., the concentration of compound required to increase SIRT1 activity by 50% over the control lacking test compound), and Percent Maximum Activation (i.e., the maximum activity relative to control (100%) obtained for the test compound).
A control for activation of sirtuin activity was conducted using 10 nM of sirtuin protein, with 1 μL of DMSO in place of compound, to determine the amount of deacetylation of the substrate at a given time point within the linear range of the assay. This time point was the same as that used for test compounds and, within the linear range, the endpoint represents a change in velocity.
For the above assay, SIRT1 protein was expressed and purified as follows. The SirT1 gene was cloned into a T7-promoter containing vector and transformed into BL21(DE3). The protein was expressed by induction with 1 mM IPTG as an N-terminal His-tag fusion protein at 18° C. overnight and harvested at 30,000×g. Cells were lysed with lysozyme in lysis buffer (50 mM Tris-HCl, 2 mM Tris[2-carboxyethyl] phosphine (TCEP), 10 μM ZnCl2, 200 mM NaCl) and further treated with sonication for 10 min for complete lysis. The protein was purified over a Ni-NTA column (Amersham) and fractions containing pure protein were pooled, concentrated and run over a sizing column (Sephadex S200 26/60 global). The peak containing soluble protein was collected and run on an Ion-exchange column (MonoQ). Gradient elution (200 mM-500 mM NaCl) yielded pure protein. This protein was concentrated and dialyzed against dialysis buffer (20 mM Iris-HCl, 2 mM TCEP) overnight. The protein was aliquoted and frozen at −80° C. until further use.

[1] = concentration of test compound that results in 150% activation of SIRT1, Trp peptide substrate
[2] = Trp mass spectrometry assay, EC1.5 = concentration of test compound that results in 150% activation of SIRT1
[3] = Trp mass spectrometry assay, EC1.5 = concentration giving 150% activation of SIRT1

Row | SMILES | Emax (Trp mass spectrometry assay) [%] | Tryp AVG EC1.5 (μM) [1] | Emax (Trp peptide substrate) [%] | Tryp AVG EC1.5 (μM) [2] | Tryp AVG EC1.5 (μM) [3]
1 | O=C(Nc1ccnc(OC[C@H](O)CO)c1)N1c2nc(-c3cccc(Cl)c3)ccc2N2CC[C@H]1C2 [Example 66] | ≥ 150 |  |  |  | 
2 | O=C(Nc1cncc(OCC(O)CO)n1)N1c2nc(-c3cccc(Cl)c3)ccc2N2CC[C@H]1C2 (stereo partly drawn) [Example 63] | ≥ 150 |  |  |  | 
3 | CC(C)N1CCCN(c2ccc3c(n2)N(C(=O)Nc2ccncn2)[C@H]2CCCN3C2)CC1 [Example 447] |  | C (EC1.5>25 μM) | < 150 |  | 
4 | O=C(Nc1cccnc1)N1c2nc(-c3cnn(C4CCCC4)c3)ccc2N2CC[C@H]1C2 [Example 587] |  | B (EC1.5 1-25 μM) | ≥ 150 |  | 
5 | O=C(Nc1ccccn1)N1c2nc(-c3cncc(Cl)c3)ccc2N2CCC1CC2 [Example 551] |  | B (EC1.5 1-25 μM) | ≥ 150 |  | 
6 | Cc1nc(NC(=O)N2c3nc(-c4cncc(C(F)(F)F)c4)ccc3N3CCC[C@H]2C3)sc1C [Example 427] |  | A (EC1.5<1 μM) | ≥ 150 |  | 
7 | O=C(Nc1cccnc1)N1c2nc(-c3cc[nH]n3)ccc2N2CC[C@H]1C2 [Example 493] |  | B (EC1.5 1-25 μM) | ≥ 150 |  | 
8 | O=C(Nc1ccc(F)cn1)N1c2nc(-c3cccc(Cl)c3)ccc2N2CC[C@@H]1C2 [Example 204] | ≥ 150 |  |  | B (EC1.5 1-25 μM) | 
9 | Cc1csc(NC(=O)N2c3nc(N4CCCC(C(F)(F)F)C4)ccc3N3CCC[C@@H]2C3)n1 (stereo partly drawn) [Example 312] |  | B (EC1.5 1-25 μM) | ≥ 150 |  | 
10 | O=C(Nc1cncc(F)c1)N1c2nc(-c3cccc(C(F)(F)F)c3)ccc2N2CC[C@H]1C2 [Example 20] | ≥ 150 |  |  |  | 
11 | Cc1c(-c2ccc3c(n2)N(C(=O)Nc2cnccn2)[C@H]2CCN3C2)cnn1C [Example 532] |  | B (EC1.5 1-25 μM) | ≥ 150 |  | 
12 | N#Cc1cccc(-c2ccc3c(n2)N(C(=O)Nc2cncc(F)c2)[C@H]2CCN3C2)c1 [Example 182] | ≥ 150 |  |  | A (EC1.5<1 μM) | 
13 | O=C(Nc1ccc(F)cn1)N1c2nc(-c3cccc(C(F)(F)F)n3)ccc2N2CC[C@H]1C2 [Example 340] |  | B (EC1.5 1-25 μM) | ≥ 150 |  | 
14 | Cc1cc(-c2ccc3c(n2)N(C(=O)Nc2cncc(F)c2)[C@H]2CCN3C2)ccn1 [Example 238] |  | B (EC1.5 1-25 μM) | ≥ 150 |  | 
15 | Cc1nc(NC(=O)N2c3nc(N4CCCC(C(F)(F)F)C4)ccc3N3CC[C@H]2C3)sc1C (stereo partly drawn) [Example 215] | ≥ 150 |  |  | B (EC1.5 1-25 μM) | 
16 | COc1cncc(-c2ccc3c(n2)N(C(=O)Nc2ccccn2)[C@H]2CCN3C2)c1 [Example 346] |  | B (EC1.5 1-25 μM) | ≥ 150 |  | 
17 | O=C(Nc1ccc(F)cn1)N1c2nc(-c3cccc(OC(F)(F)F)c3)ccc2N2CC[C@H]1C2 [Example 129] | ≥ 150 |  |  | A (EC1.5<1 μM) | 
18 | O=C(Nc1cncc(F)c1)N1c2nc(-c3cccc(Cl)c3)ccc2N2CC[C@H]1C2 [Example 119] | ≥ 150 |  |  | A (EC1.5<1 μM) | 
19 | O=C(Nc1cccnc1)N1c2nc(-c3cncc(C(F)(F)F)c3)ccc2N2C[C@@H](O)[C@H]1C2 [Example 705] | ≥ 150 |  |  |  | B (EC1.5 1-25 μM)

Row | SMILES | Emax (Trp mass spectrometry assay) [%] | Tryp AVG EC1.5 (μM) [1] | Emax (Trp peptide substrate) [%] | Tryp AVG EC1.5 (μM) [2] | Tryp AVG EC1.5 (μM) [3]
20 | O=C(Nc1ccc(F)cn1)N1c2nc(-c3cccc(N4CCC(C(F)(F)F)C4)c3)ccc2N2CC[C@H]1C2 (stereo partly drawn) [Example 321] |  | B (EC1.5 1-25 μM) | ≥ 150 |  | 
21 | O=C(Nc1cccnc1)N1c2nc(N3CCCC(C(F)(F)F)C3)ccc2N2CCC[C@@H]1C2 (stereo partly drawn) [Example 302] |  | B (EC1.5 1-25 μM) | ≥ 150 |  | 
22 | O=C(Nc1ccnc(Br)c1)N1c2nc(-c3cccc(C(F)(F)F)c3)ccc2N2CC[C@H]1C2 [Example 541] |  | A (EC1.5<1 μM) | ≥ 150 |  | 
23 | O=C(Nc1ccncn1)N1c2nc(-c3cccc(N4CCCC4)c3)ccc2N2CC[C@H]1C2 [Example 193] | ≥ 150 |  |  | B (EC1.5 1-25 μM) | 
24 | O=C(Nc1cnccn1)N1c2nc(-c3cncc(Cl)c3)ccc2N2CC[C@H]1C2 [Example 275] |  | A (EC1.5<1 μM) | ≥ 150 |  | 
25 | O=C(Nc1ccc2c(c1)OCCCO2)N1c2nc(-c3cccc(C(F)(F)F)c3)ccc2N2CC[C@H]1C2 [Example 95] | ≥ 150 |  |  | A (EC1.5<1 μM) | 
26 | N#Cc1cccc(-c2ccc3c(n2)N(C(=O)Nc2ccncc2F)[C@H]2CCN3C2)c1 [Example 147] | ≥ 150 |  |  | B (EC1.5 1-25 μM) | 
27 | N#Cc1cccc(-c2ccc3c(n2)N(C(=O)Nc2ccc(F)cn2)[C@H]2CCN3C2)c1 [Example 130] | ≥ 150 |  |  | A (EC1.5<1 μM) | 
28 | NCc1cn(-c2cccc(NC(=O)N3c4nc(-c5cccc(C(F)(F)F)c5)ccc4N4CC[C@H]3C4)c2)nn1 [Example 606] |  | A (EC1.5<1 μM) | ≥ 150 |  | 
29 | O=C(Nc1ccc(F)cn1)N1c2nc(-c3cncc(F)c3)ccc2N2CCC[C@H]1C2 [Example 431] |  | A (EC1.5<1 μM) | ≥ 150 |  | 
30 | COc1cc(NC(=O)N2c3nc(-c4cccc(Cl)c4)ccc3N3C[C@@H](O)[C@H]2C3)nc(OC)n1 [Example 680] | ≥ 150 |  |  |  | B (EC1.5 1-25 μM)
31 | CN(C)c1cccc(-c2ccc3c(n2)N(C(=O)Nc2ccccn2)[C@@H]2CCCN3C2)c1 [Example 251] |  | C (EC1.5>25 μM) | ≥ 150 |  | 
32 | O=C(Nc1cccnc1)N1c2nc(-c3cnn(-c4ccccc4)c3)ccc2N2CC[C@H]1C2 [Example 549] |  | B (EC1.5 1-25 μM) | ≥ 150 |  | 
33 | O=C(Nc1cncc(F)c1)N1c2nc(-c3cccc(C(F)(F)F)c3)ccc2N2CCC[C@@H]1C2 [Example 273] |  | A (EC1.5<1 μM) | ≥ 150 |  | 
34 | Cn1nccc1-c1ccc2c(n1)N(C(=O)Nc1cnccn1)[C@H]1CCN2C1 [Example 414] |  | B (EC1.5 1-25 μM) | ≥ 150 |  | 
35 | O=C(NCCCN1CCOCC1)N1c2nc(-c3cccc(C(F)(F)F)c3)ccc2N2CC[C@H]1C2 [Example 612] |  | B (EC1.5 1-25 μM) | ≥ 150 |  | 
36 | O=C(Nc1cccc(C2(C(F)(F)F)N=N2)c1)N1c2nc(-c3cccc(C(F)(F)F)c3)ccc2N2CC[C@H]1C2 [Example 315] |  | B (EC1.5 1-25 μM) | ≥ 150 |  | 
37 | COc1cc(NC(=O)N2c3nc(-c4cccc(OC(F)(F)F)c4)ccc3N3CC[C@H]2C3)ncn1 [Example 135] | ≥ 150 |  |  | A (EC1.5<1 μM) | 
38 | Cc1csc(NC(=O)N2c3nc(-c4cccc(C(F)(F)F)c4)ccc3N3CC[C@H]2C3)n1 [Example 56] | ≥ 150 |  |  |  | 
